# Earlier results as cited in publication PMC3848336, “Aurora Isoform Selectivity: Design and Synthesis of Imidazo[4,5-b]pyridine Derivatives as Highly Selective Inhibitors of Aurora-A Kinase in Cells” (Journal of Medicinal Chemistry, 2013).
# System: Aurora-A/N-Myc complex
# Set-up: method as in PMID 23792191
# Settings: cited from earlier work
row,SMILES,disruption of the Aurora-A/N-Myc complex
1,O=C(O)c1ccc(Nc2ncc3c(n2)-c2ccc(Cl)cc2C(c2c(F)cccc2F)=NC3)cc1 [MLN8054],disrupt the Aurora-A/N-Myc complex
2,O=C(O)[C@]1(Cc2cccc(Nc3nccs3)n2)CC[C@@H](Oc2cccc(Cl)c2F)CC1 [MK-5108],not disrupted
3,COc1cc(Nc2ncc3c(n2)-c2ccc(Cl)cc2C(c2c(F)cccc2OC)=NC3)ccc1C(=O)O [MLN8237],disrupt the Aurora-A/N-Myc complex
